Experimental findings from patent US9084770B2, “Modulation of insulin like growth factor I receptor expression in cancer” (Antisense Therapeutics, Ltd., priority 2008, dated 2015) are described below.

This data set has as its system human IGF-IR mRNA. In words: Antisense inhibition of human IGF-IR mRNA levels by quantitative RT-PCR (Table 1). The data set is classed as cell-based. More on the design: %INHIB (human IGF-IR mRNA levels): concentration or dose not given beside the values. The conditions noted are these: for %INHIB (human IGF-IR mRNA levels): quantitative RT-PCR, averages from 3 experiments. From the text: Treatment of A549 cell cultures with oligonucleotides targeting IGF-IR is as described in WO 2004/072284.
Quantitation of IGF-IR mRNA levels was accomplished by RT-PCR using the ABI PRISM (trademark) 7600, 7700, or 7900 Sequence Detection System (PE-Applied Biosystems, Foster City, Calif.) according to manufacturer's instructions. This is a closed-tube, non-gel-based, fluorescence detection system which allows high-throughput quantitation of PCR products in real-time. As opposed to standard PCR in which amplification products are quantitated after the PCR is completed, products in real-time quantitative PCR are quantitated as they accumulate. This is accomplished by including in the PCR reaction an oligonucleotide probe that anneals specifically between the forward and reverse PCR primers, and contains two fluorescent dyes. A reporter dye (e.g., FAM or JOE, obtained from either PE-Applied Biosystems, Foster City, Calif., Operon Technologies Inc., Alameda, Calif. or Integrated DNA Technologies Inc., Coralville, Iowa) is attached to the 5′-end of the probe and a quencher dye (e.g., TAMRA, obtained from either PE-Applied Biosystems, Foster City, Calif., Operon Technologies Inc., Alameda, Calif. or Integrated DNA Technologies Inc., Coralville, Iowa) is attached to the 3′-end of the probe. When the probe and dyes are intact, reporter dye emission is quenched by the proximity of the 3′ quencher dye. During amplification, annealing of the probe to the target sequence creates a substrate that can be cleaved by the 5′-exonuclease activity of Taq polymerase. […] With each cycle, additional reporter dye molecules are cleaved from their respective probes, and the fluorescence intensity is monitored at regular intervals by laser optics built into the ABI PRISM (trademark) Sequence Detection System. In each assay, a series of parallel reactions containing serial dilutions of mRNA from untreated control samples generates a standard curve that is used to quantitate the percent inhibition after antisense oligonucleotide treatment of test samples.
PCR reagents were obtained from Invitrogen Corporation, (Carlsbad, Calif.). RT-PCR reactions were carried out by adding 20 μL PCR cocktail (2.5×PCR buffer minus MgCl2, 6.6 mM MgCl2, 375 μM each of dATP, dCTP, […] and dGTP, 375 nM each of forward primer and reverse primer, 125 nM of probe, 4 Units RNAse inhibitor, 1.25 Units PLATINUM (registered trademark) Taq, 5 Units MuLV reverse transcriptase, and 2.5×ROX dye) to 96-well plates containing 30 μL total RNA solution (20-200 ng). The RT reaction was carried out by incubation for 30 minutes at 48° C. Following a 10 minute incubation at 95° C. to activate the PLATINUM (trademark) Taq, 40 cycles of a two-step PCR protocol were carried out: 95° C. for 15 seconds (denaturation) followed by 60° C. for 1.5 minutes (annealing/extension).
Gene target quantities obtained by RT-PCR are normalized using either the expression level of GAPDH, a gene whose expression is constant, or by quantifying total RNA using RiboGreen (trademark) (Molecular Probes, Inc. Eugene, Oreg.). GAPDH expression is quantified by RT-PCR, by being run simultaneously with the target, multiplexing, or separately. Total RNA is quantified using RiboGreen (trademark) RNA quantification reagent (Molecular Probes, Inc. Eugene, Oreg.). Methods of RNA quantification by RiboGreen (trademark) are taught in Jones et al., 1998.
Probes and primers to human IGF-IR were designed to hybridize to the IGF-IR nucleotide sequence, using published sequence information (GenBank accession number NM000875 (SEQ ID NO:76) or M69229 (SEQ ID NO:77) which is the 5′ untranslated of the IGF-IR gene sequence (see FIG. 6).
In accordance with the present invention, a series of antisense compounds were designed to target different regions of the human IGF-IR mRNA or the 5′ untranslated region, using published sequences set forth in NM000875 (SEQ ID NO:77) and M69229 (SEQ ID NO:76). […]

Turning to “323751 (antisense GCCACTTTAAAAAGATGGAG; listed as DNA, chemistry not fully specified) [compound 323751]”, the “%INHIB (human IGF-IR mRNA levels)” value stood at 77%. As for “323723 (antisense AGCAGCGGTAGTTGTACTCA; listed as DNA, chemistry not fully specified) [compound 323723]”, the “%INHIB (human IGF-IR mRNA levels)” value is 70%. Still for that read-out and setting: the figure for “323704 (antisense CGGTAGTCCTCGGCCTTGGA; listed as DNA, chemistry not fully specified) [compound 323704]” is 71%; for “323707 (antisense GAGATTGGTCATCTCGAAGA; listed as DNA, chemistry not fully specified) [compound 323707]” it is 20%; for “323748 (antisense GCAGCCCAGCTTCTCAGCCT; listed as DNA, chemistry not fully specified) [compound 323748]” it is 77%. The same measure, in the same setting: the figure for “323758 (antisense GAGACCGGAGATAACTTTTG; listed as DNA, chemistry not fully specified) [compound 323758]” is 29%; for “323761 (antisense TGTAGTAGAAGGAGACCTCC; listed as DNA, chemistry not fully specified) [compound 323761]” it is 26%. Same read-out and setting: the figure for “323701 (antisense TTGGAGATGAGCAGGATGTG; listed as DNA, chemistry not fully specified) [compound 323701]” is 65%; for “323742 (antisense TCCTTGTTATCCACTCTGCT; listed as DNA, chemistry not fully specified) [compound 323742]” it is 58%. For “323760 (antisense GCGATCTCCCAGAGGACGAC; listed as DNA, chemistry not fully specified) [compound 323760]”, the “%INHIB (human IGF-IR mRNA levels)” value turned out to be 72%. The same measure, in the same setting: the value for “175292 (antisense AGTCTCAAACTCAGTCTTCG; listed as DNA, chemistry not fully specified) [compound 175292]” was 78%; that for “323741 (antisense GTTATCCACTCTGCTCTCAA; listed as DNA, chemistry not fully specified) [compound 323741]” was 57%; that for “323728 (antisense TCCCACAGTTGCTGCAAGTT; listed as DNA, chemistry not fully specified) [compound 323728]” was 73%.

Regarding “323709 (antisense CAATATCCTTGAGATTGGTC; listed as DNA, chemistry not fully specified) [compound 323709]”, the “%INHIB (human IGF-IR mRNA levels)” value came out at 29%. On the same count and under the same terms, the value for “323697 (antisense TGATAGTCGTTGCGGATGTC; listed as DNA, chemistry not fully specified) [compound 323697]” was 73%. On the same count and under the same terms, the figure for “175326 (antisense CCCAAATCCAGGACACACAC; listed as DNA, chemistry not fully specified) [compound 175326]” is 74%. As to “175307 (antisense AAGTCTCAAACTCAGTCTTC; listed as DNA, chemistry not fully specified) [compound 175307]”, the “%INHIB (human IGF-IR mRNA levels)” value is reported as 86%. The “inhibition of IGF-IR expression (lead compounds)” value (as shown in Table 1) was “demonstrated inhibition”. Regarding “175315 (antisense GCAGCGGCCCAGGGCTCGGC; listed as DNA, chemistry not fully specified) [compound 175315]”, the “%INHIB (human IGF-IR mRNA levels)” value is listed as 75%.

As to “323714 (antisense ATGTAGTTATTGGACACCGC; listed as DNA, chemistry not fully specified) [compound 323714]”, the “%INHIB (human IGF-IR mRNA levels)” value was determined as 64%.
